Article PMC6427912 (Journal of medicinal chemistry, 2019)
In brackets after ≈: the same amount, converted by molar mass. Several values for one entry are separate records, joined by “and”; a condition that tells them apart may be missing. Identical values can stand only once. Like-named read-outs stand apart in the source and are kept apart here.

Experiments:
[1] = biological target: EcOPPS (E. coli octaprenyl diphosphate synthase) (Escherichia coli, UniProt P0AD57); test: OPPS enzyme inhibition assay; assay type: biochemical; details: IC50 against EcOPPS
S. aureus = S. aureus growth inhibition assay; assay type: cell-based, Staphylococcus aureus; details: for Sa ED50: S. aureus growth inhibition
[2] = biological target: SaHepPPS (S. aureus heptaprenyl diphosphate synthase) (Staphylococcus aureus, UniProt Q2FYG6); test: HepPPS enzyme inhibition assay; assay type: biochemical; details: IC50 against SaHepPPS
E. faecium = details: cited from earlier work
E. faecalis = details: cited from earlier work
B. subtilis [3] = test: B. subtilis serum binding assay; assay type: cell-based, Bacillus subtilis; details: for effect of serum on B. subtilis growth inhibition: 4% or 10% fetal bovine serum
B. subtilis [4] = details: cited from earlier work
HEK293 cells = test: HEK293 cell growth inhibition assay; assay type: cell-based, human; details: for HEK293 toxicity (ED50): 96 hours incubation; for HEK 293: HEK293 cell growth inhibition ED50, 24 hr incubation
P. aeruginosa FPPS = details: read-out: activity against P. aeruginosa FPPS; cited from earlier work
B. subtilis [5] = test: B. subtilis cell growth inhibition rescue assays; assay type: cell-based, Bacillus subtilis
EcUPPS = EcUPPS (Escherichia coli, UniProt P60472); test: UPPS enzyme inhibition assay; assay type: biochemical, E. coli
B. anthracis Sterne = assay type: cell-based, Bacillus anthracis; details: B. anthracis Sterne growth inhibition
[6] = biological target: T1, HsFPPS (human farnesyl diphosphate synthase) (Homo sapiens, UniProt P14324); test: FPPS enzyme inhibition assay; assay type: biochemical
T1 sequence (P14324 1-419): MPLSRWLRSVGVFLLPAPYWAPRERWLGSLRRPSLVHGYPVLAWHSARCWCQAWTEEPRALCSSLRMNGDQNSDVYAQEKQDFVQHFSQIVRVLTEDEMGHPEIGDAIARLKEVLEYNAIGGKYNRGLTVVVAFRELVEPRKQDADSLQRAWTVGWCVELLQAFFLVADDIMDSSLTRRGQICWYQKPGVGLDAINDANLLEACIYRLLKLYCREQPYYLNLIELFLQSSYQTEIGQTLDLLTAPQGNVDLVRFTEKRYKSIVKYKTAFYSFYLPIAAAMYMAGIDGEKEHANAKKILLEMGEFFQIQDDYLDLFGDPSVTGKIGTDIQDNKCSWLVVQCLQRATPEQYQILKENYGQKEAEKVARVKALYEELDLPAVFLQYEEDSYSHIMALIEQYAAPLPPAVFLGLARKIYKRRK

Mycobacterium smegmatis = test: M. smegmatis growth inhibition assay; assay type: cell-based
B. subtilis [7] = test: B. subtilis growth inhibition assay; assay type: cell-based, Bacillus subtilis
[8] = HEK293 cell growth inhibition assay; assay type: cell-based, human; details: human, HEK293 cells

EcOPPS (E. coli octaprenyl diphosphate synthase), sequence (P0AD57 whole entry): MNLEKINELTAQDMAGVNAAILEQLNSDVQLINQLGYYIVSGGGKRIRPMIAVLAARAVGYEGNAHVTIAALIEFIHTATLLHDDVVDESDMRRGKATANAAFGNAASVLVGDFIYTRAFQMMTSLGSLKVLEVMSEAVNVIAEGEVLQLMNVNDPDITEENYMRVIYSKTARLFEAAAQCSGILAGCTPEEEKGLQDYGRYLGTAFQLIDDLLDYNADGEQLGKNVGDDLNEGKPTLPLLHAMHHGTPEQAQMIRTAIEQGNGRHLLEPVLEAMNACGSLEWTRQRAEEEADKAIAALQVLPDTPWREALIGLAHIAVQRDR
EcUPPS, sequence (P60472 whole entry): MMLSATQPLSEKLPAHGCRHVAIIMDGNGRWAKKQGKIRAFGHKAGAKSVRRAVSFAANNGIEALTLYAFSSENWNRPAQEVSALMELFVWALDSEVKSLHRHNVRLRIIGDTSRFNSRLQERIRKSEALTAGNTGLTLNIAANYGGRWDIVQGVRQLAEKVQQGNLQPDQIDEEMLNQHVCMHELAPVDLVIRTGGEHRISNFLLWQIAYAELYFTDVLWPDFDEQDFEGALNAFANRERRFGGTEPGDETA

Compound | Sa ED50 (S. aureus; value in parentheses) | Ba ED50 (B. anthracis Sterne) | Ba ED50 (B. anthracis Sterne; value in parentheses) | Sa ED50 (S. aureus) | Ms ED50 (Mycobacterium smegmatis; 48 hours) | Ms ED50 (Mycobacterium smegmatis; value in parentheses) | Bs ED50 (B. subtilis [7]; value in parentheses) | HEK 293 (HEK293 cells) | Bs ED50 (B. subtilis [7]; 12 hours) | HEK 293 (HEK293 cells; value in parentheses) | also measured
CCCCCCCCCCOc1ccc[n+](CC(P(=O)([O-])O)P(=O)(O)O)c1 (stereo not drawn) [Compound 6] | – | – | – | – | – | – | – | – | – | – | IC50 [1]: ~6 nM
O=P(O)(O)C(O)(Cn1ccnc1)P(=O)(O)O [Compound 24, zoledronate] | – | – | – | – | – | – | – | – | – | – | IC50 [1]: < 1000 nM
O=P(O)(O)C(O)(Cc1cccc(-c2cccc3c2oc2ccccc23)c1)P(=O)(O)O [Compound 69] | 19 µM | – | – | – | – | – | – | – | – | – | IC50 [1]: ~330000 nM; IC50 [2]: 1000 to 2000 nM
CCCCCCCCCCCCCCOc1cccc(O)c1C(=O)O [Compound 70] | – | – | – | – | – | – | – | – | – | – | MIC E. faecium cell growth (E. faecium): 4 µg/mL (≈ 11.4 µM); MIC E. faecalis cell growth (E. faecalis): 4 µg/mL (≈ 11.4 µM); IC50 (S. aureus; Staphylococcus aureus, read-out: IC50 for S. aureus cell growth inhibition): 19 µM; IC50 [2]: 1000 to 2000 nM
O=P([O-])(O)C(Cn1cc[n+](CCCc2ccc(F)c(F)c2)c1)P(=O)(O)O (stereo not drawn) [Compound 72, reference compound] | – | – | – | – | – | – | – | – | – | – | increase in ED50 with 10% serum (B. subtilis [3]; B. subtilis, 10% serum): 50%; activity against B. subtilis (B. subtilis [4]): > 100 µg/mL; HEK293 toxicity (ED50) (HEK293 cells): 13 µM; IC50 (P. aeruginosa FPPS): 100 to 200 nM
CC(C)CCCC(C)CCOc1ccc[n+](CC(P(=O)([O-])O)P(=O)(O)O)c1 (stereo not drawn) [Compound 74, Hydrogen(2-(3-((3,7-dimethyloctyl)oxy)pyridin-1-ium-1-yl)-1-phosphonoethyl) phosphonate] | 33 µM | 2.3 µg/mL | 5.4 µM | 14 µg/mL | 5.9 µg/mL | 14 µM | 2.4 µM | 262 µg/mL | – | – | increase in ED50 for B. subtilis growth inhibition, rescue by HMBPP (B. subtilis [5]; 50 µM HMBPP): ~ 2 x; increase in ED50 for B. subtilis growth inhibition, rescue by MK-4 (B. subtilis [5]; 50 µM MK-4): ~ 5 x; effect of serum on B. subtilis growth inhibition (B. subtilis [3]): little effect; inhibition of UPPS (EcUPPS): no inhibition; IC50 [6]: 200 nM and ~200 nM; HEK293 toxicity (ED50) (HEK293 cells): 76 µM and ~ 70 µM; HEK293 toxicity (HEK293 cells; after 24 hrs): ~ 0.5 mM
CCCCCCCCCCCc1ccc[n+](CC(P(=O)([O-])O)P(=O)(O)O)c1 (stereo not drawn) [Compound 76, Hydrogen (1-phosphono-2-(3-undecylpyridin-1-ium-1-yl)ethyl)phosphonate] | 30 µM | 0.6 µg/mL | 1.4 µM | 13 µg/mL | 6.1 µg/mL | 14 µM | 4.8 µM | 96 µg/mL | 2.1 µg/mL | – | effect of serum on B. subtilis growth inhibition (B. subtilis [3]): no effect; HEK293 toxicity (ED50) (HEK293 cells): 7.3 µM
CC(C)CCCC(C)CCCc1ccc[n+](CC(P(=O)([O-])O)P(=O)(O)O)c1 (stereo not drawn) [Compound 77, Hydrogen(2-(3-(4,8-dimethylnonyl)pyridin-1-ium-1-yl)-1-phosphonoethyl) phosphonate] | 31 µM | 2.1 µg/mL | 5.0 µM | 13 µg/mL | 5.9 µg/mL | 14 µM | 5.2 µM | 194 µg/mL | 2.2 µg/mL | – | effect of serum on B. subtilis growth inhibition (B. subtilis [3]): no effect; HEK293 toxicity (ED50) (HEK293 cells): 140 µM
CC(C)CCCC(C)CCCc1cc[n+](CC(P(=O)([O-])O)P(=O)(O)O)cc1 (stereo not drawn) [Compound 80, Hydrogen(2-(4-(4,8-dimethylnonyl)pyridin-1-ium-1-yl)-1-phosphonoethyl) phosphonate] | 50 µM | 2.2 µg/mL | 5.2 µM | 21 µg/mL | 7.2 µg/mL | 17 µM | 7.4 µM | 295 µg/mL | 3.1 µg/mL | 700 µM | IC50 [8]: ~1 mM
CCCCCCCCCCCCCc1ccc[n+](CC(P(=O)([O-])O)P(=O)(O)O)c1 (stereo not drawn) [Compound 83, Hydrogen (1-phosphono-2-(3-tridecylpyridin-1-ium-1-yl)ethyl)phosphonate] | 67 µM | 2.2 µg/mL | 4.9 µM | 30 µg/mL | 7.2 µg/mL | 16 µM | 12 µM | 22 µg/mL | 5.5 µg/mL | 48 µM | –
CC(C)CCCC(C)CCOc1cc[n+](CC(P(=O)([O-])O)P(=O)(O)O)cc1 (stereo not drawn) [Compound 84, Hydrogen (2-(4-((3,7-dimethyloctyl)oxy)pyridin-1-ium-1-yl)-1-phosphonoethyl) phosphonate] | 66 µM | 2.5 µg/mL | 5.9 µM | – | 150 µg/mL | 350 µM | 14 µM | 420 µg/mL | – | 1000 µM | IC50 [8]: ~1 mM
CC(C)CCCC(C)CCSc1cc[n+](CC(P(=O)([O-])O)P(=O)(O)O)cc1 (stereo not drawn) [Compound 85, Hydrogen(2-(4-((3,7-dimethyloctyl)thio)pyridin-1-ium-1-yl)-1-phosphonoethyl) phosphonate] | 71 µM | 1.1 µg/mL | 2.5 µM | 31 µg/mL | 70 µg/mL | 160 µM | 16 µM | 440 µg/mL | 7.0 µg/mL | 1000 µM | –
CC(C)CCCC(C)CCOc1cc(NCC(P(=O)(O)O)P(=O)(O)O)ccn1 (stereo not drawn) [Compound 87, (2-((2-((3,7-Dimethyloctyl)oxy)pyridin-4-yl)amino)ethane-1,1-diyl)bis(phosphonic acid)] | 80 µM | 3.2 µg/mL | 7.3 µM | 35 µg/mL | 75 µg/mL | 170 µM | 48 µM | 530 µg/mL | 21 µg/mL | 1200 µM | –
CC(C)CCCC(C)CCOc1ccnc(NC(P(=O)(O)O)P(=O)(O)O)c1 (stereo not drawn) [Compound 95, (((4-((3,7-Dimethyloctyl)oxy)pyridin-2-yl)amino)methylene)bisphosphonic acid] | 140 µM | 2.5 µg/mL | 5.2 µM | 69 µg/mL | 79 µg/mL | 160 µM | 230 µM | 630 µg/mL | 110 µg/mL | 1300 µM | –
(((6-(4,8-Dimethylnonyl)pyridin-2-yl)amino)methylene)bis(phosphonic acid) [Compound 89] | 73 µM | 3.0 µg/mL | 6.9 µM | 32 µg/mL | 93 µg/mL | 210 µM | 60 µM | 480 µg/mL | 26 µg/mL | 1100 µM | –
